Measurements reported in publication PMC9098913, “In vitro reconstitution of Escherichia coli divisome activation” (Nature Communications, 2022).
“And” between values parts separate entries of the source, which are not always exact repeats. Identical values can stand only once. Like-named read-outs stand apart in the source and are kept apart here.

What was measured:
[1] = Single-molecule diffusion coefficient of FtsA on the membrane; conditions: for Diffusion Coefficient: single-particle tracking, n = 3; for Single Molecule Diffusion Constant, mean: mean of Exp. 1-3, n = 3, Fig. 3b
Experimental: First, we studied the behaviour of single FtsA proteins on the membrane surface.
After 5 min of incubation, single molecule time lapses were acquired every 125, 250, 500, and 1000 and 2000 ms, with an exposure time of 50 ms. Subsequently, the bulk concentration of FtsA was increased to 0.2/0.4/0.8 µM and time lapses were repeated as described above.
Single molecules of FtsA or FtsZ were tracked using the TrackMate plugin from ImageJ[43]. To obtain the residence time of FtsZ and FtsA, we performed a residence time analysis as described before[40],[47]. Shortly, single molecules were imaged at different acquisition rates (0.1–2 s) and the lifetime of the molecules was extracted from each data set. To account for photobleaching effect, the obtained lifetimes were plotted against the acquisition rate. […] Furthermore, we extracted the diffusion coefficient of FtsA single molecules at increasing concentrations. For this, we filtered the obtained data, by considering only trajectories which are present on the membrane for more than 0.4 s. […] Subsequently, the diffusion coefficient of FtsA molecules was estimated by fitting an MSD curve to each individual trajectory.

[2] = system: FtsZ filaments; assay: Slope of linear regression FtsZ vs FtsA intensity (packing of FtsA below FtsZ filaments); assay type: biochemical, E. coli; conditions: for Slope of linear regression: Fig. S2h
Source text: While fluorescence microscopy cannot resolve molecular assemblies of these small dimensions, a higher packing density of FtsA R286W below FtsZ filaments could explain the enhanced colocalization with FtsZ. To test this hypothesis, we analysed the pixel-by-pixel relationship between the fluorescence intensities of FtsZ and FtsA in dual-colour fluorescence time-lapse movies. […] At low FtsA concentrations, we found the slopes for both proteins to be similar.

[3] = system: FtsZ; conditions: for Pearson correlation coefficient (PCC) FtsA/FtsZ: 1.25 µM FtsZ, mean ± s.d.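 On FtsZ autocorrelation T: FtsZ filament patterns imaged by time-lapse TIRF microscopy, one frame per 2 s, with ATP and GTP, Pearson correlation of first frame versus later frames, monoexponential fit, slower decay means persistent structures.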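 On FtsZ autocorrelation: FtsZ filament patterns imaged by time-lapse TIRF microscopy, one frame per 2 s, with ATP and GTP, Pearson correlation of first frame versus later frames, monoexponential fit, slower decay means persistent structures.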
Source text: Time-lapse videos were first intensity-corrected and contrast-enhanced to avoid bleaching effects and simplify subsequent analysis. To remove contributions of X–Y drift, the videos were processed with the Linear Stack Alignment with SIFT plugin. […] Subsequently, regions of interest (ROIs) in the center of the stacks were chosen for colocalization analysis. The Pearson’s correlation coefficient (PCC) was quantified with the Image CorrelationJ 1o plugin. To extract information about the relative ratio of FtsZ/FtsA molecules (slope of linear regression), we also used the Image CorrelationJ 1o plugin. As an output, the plugin provides a scatterplot of FtsZ vs FtsA intensities, to which we fitted a linear slope y=k⋅x+d , where k is the slope and d the offset. The slope was used as an estimate for the ratio of FtsA molecules below FtsZ filaments[42].

[4] = SEC-MALS oligomeric state of FtsA in solution; assay type: physicochemical
Experimental: Light scattering was recorded on a miniDAWN light scattering device (Wyatt). Changes in the refractive index were used to define the peak area, which was used to obtain the molecular mass. The analysis of the data was performed with the ASTRA software (Wyatt).

[5] = system: FtsA/Z co-filaments; assay type: biochemical, E. coli; conditions: Fig. 2g, mean
Experimental: By fitting an exponential function to the increase of the PCC with time, we were able to extract the corresponding recruitment rate (Fig. 2f, g).
Subsequently, the chamber was washed 6x with reaction buffer, to remove bulk peptide. To visualize colocalization with either FtsZ or FtsA, either a mix of FtsA and Alexa488-FtsZ or Cy3-FtsA and FtsZ was added. […] The time-lapse videos were recorded for 10 min after the addition, with one frame per 2 s.

[6] = system: FtsZ; conditions: for FtsZ autocorrelation T: mean; for Autocorrelation Decay Tau: Fig. S2i, + FtsN;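 on FtsZ autocorrelation: FtsZ filament patterns imaged by time-lapse TIRF microscopy, one frame per 2 s, with ATP and GTP, Pearson correlation of first frame versus later frames, monoexponential fit, slower decay means persistent structures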
Source text: To measure reorganization dynamics of FtsZ filaments, we used a temporal correlation analysis based on the Image CorrelationJ 1o plugin. We quantified the PCC between the first frame to subsequent frames with increasing time lag (∆t). The decrease in the PCC was plotted against ∆t to obtain autocorrelation curves. Slower decay indicates more persistent structures. The rates of decay were extracted by fitting monoexponential decay to the autocorrelation curves y=a⋅e^−b⋅t+k , where a is the starting point, b is the decay rate and k is the final offset. The half time of the monoexponential decay was calculated via the decay rate.

[7] = Nucleotide effect on membrane binding of FtsA WT (normalized intensity); conditions: Fig. S3m
[8] = system: FtsZ; conditions: 1.25 µM FtsZ, FtsA 0.1–0.8 µM;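 on FtsZ autocorrelation: FtsZ filament patterns imaged by time-lapse TIRF microscopy, one frame per 2 s, with ATP and GTP, Pearson correlation of first frame versus later frames, monoexponential fit, slower decay means persistent structures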
Experimental: Additionally, the reaction chamber contained 4 mM ATP and 4 mM GTP, as well as a scavenging system to minimize photobleaching effects: 30 mM d-glucose, 0.050 mg ml^−1 Glucose Oxidase, 0.016 mg ml^−1 Catalase, 1 mM DTT and 1 mM Trolox. Prior addition of all components a corresponding buffer volume was removed from the chamber to obtain a total reaction volume of 100 µl. The dynamic protein pattern was monitored by time-lapse TIRF microscopy at one frame per 2 s and 50 ms exposure time.
Treadmilling dynamics, were quantified using an automated image analysis protocol previously developed by our group. To visualize colocalization of the co-treadmilling FtsZ & FtsA filaments, we used dual-colour videos obtained at an acquisition rate of one frame per 2 s. The two channels were aligned using FIJI’s 3TP align plugin. Both channels were then subjected to the image subtraction protocol and colocalization was measured as described above.

FtsA WT: wild-type E. coli actin-homologue FtsA, membrane anchor of FtsZ
Single Molecule Diffusion Constant ([1]; 0.1 µM FtsA, Exp. 1): 0.1660 µm2/s | Single Molecule Diffusion Constant ([1]; 0.1µM FtsA, Exp. 2): 0.0799 µm2/s | Single Molecule Diffusion Constant ([1]; 0.1 µM FtsA, Exp. 3): 0.1610 µm2/s | Diffusion Coefficient ([1]; 0.1 µM FtsA): 0.14 ± 0.04 µm^2/s | Single Molecule Diffusion Constant ([1]; 0.2 µM FtsA, Exp. 1): 0.0839 µm2/s | Single Molecule Diffusion Constant ([1]; 0.2µM FtsA, Exp. 2): 0.0498 µm2/s | Single Molecule Diffusion Constant ([1]; 0.2 µM FtsA, Exp. 3): 0.0248 µm2/s | Single Molecule Diffusion Constant, mean ([1]; 0.2 µM FtsA): 0.053 µm2/s and 0.0528 µm2/s | Single Molecule Diffusion Constant ([1]; 0.4 µM FtsA, Exp. 1): 0.0130 µm2/s | Single Molecule Diffusion Constant ([1]; 0.4µM FtsA, Exp. 2): 0.0096 µm2/s | Single Molecule Diffusion Constant ([1]; 0.4 µM FtsA, Exp. 3): 0.0225 µm2/s | Single Molecule Diffusion Constant, mean ([1]; 0.4 µM FtsA): 0.015 µm2/s and 0.0150 µm2/s | Single Molecule Diffusion Constant ([1]; 0.8 µM FtsA, Exp. 1): 0.0048 µm2/s | Single Molecule Diffusion Constant ([1]; 0.8µM FtsA, Exp. 2): 0.0025 µm2/s | Single Molecule Diffusion Constant ([1]; 0.8 µM FtsA, Exp. 3): 0.0035 µm2/s | Diffusion Coefficient ([1]; 0.8 µM FtsA): 0.004 ± 0.001 µm^2/s | Slope of linear regression FtsZ vs FtsA ([2]; 0.1 µM FtsA, mean): 0.64 | Slope of linear regression, mean of single experiment ([2]; 0.1µM, replicate column 1): 0.68 | Slope of linear regression, mean of single experiment ([2]; 0.1µM, replicate column 2): 0.37 | Slope of linear regression, mean of single experiment ([2]; 0.1µM, replicate column 3): 0.74 | Slope of linear regression, mean of single experiment ([2]; 0.1µM, replicate column 4): 0.70 | Slope of linear regression FtsZ vs FtsA ([2]; 0.2 µM FtsA, mean): 0.45 | Slope of linear regression, mean of single experiment ([2]; 0.2µM, replicate column 1): 0.40 | Slope of linear regression, mean of single experiment ([2]; 0.2µM, replicate column 2): 0.56 | Slope of linear regression, mean of single experiment ([2]; 0.2µM, replicate column 3): 0.40 | Slope of linear regression, mean of single experiment ([2]; 0.4µM, replicate column 1): 0.0747 | Slope of linear regression, mean of single experiment ([2]; 0.4µM, replicate column 2): 0.0547 | Slope of linear regression, mean of single experiment ([2]; 0.4µM, replicate column 3): 0.49 | Slope of linear regression, mean of single experiment ([2]; 0.4µM, replicate column 4): 0.31 | Slope of linear regression FtsZ vs FtsA ([2]; 0.8 µM FtsA, mean): 0.17 | Slope of linear regression, mean of single experiment ([2]; 0.8µM, replicate column 1): 0.16 | Slope of linear regression, mean of single experiment ([2]; 0.8µM, replicate column 2): 0.15 | Slope of linear regression, mean of single experiment ([2]; 0.8µM, replicate column 3): 0.23 | Slope of linear regression, mean of single experiment ([2]; 0.8µM, replicate column 4): 0.13 | Slope of linear regression ([2]; + FtsN, 0.10 µM, mean): 0.81 a.u. | Slope of linear regression ([2]; + FtsN, 0.10 µM, replicate 1): 0.84 a.u. | Slope of linear regression ([2]; + FtsN, 0.10 µM, replicate 2): 0.82 a.u. | Slope of linear regression ([2]; + FtsN, 0.10 µM, replicate 3): 0.78 a.u. | Slope of linear regression ([2]; + FtsN, 0.20 µM, mean): 0.65 a.u. | Slope of linear regression ([2]; + FtsN, 0.20 µM, replicate 1): 0.62 a.u. | Slope of linear regression ([2]; + FtsN, 0.20 µM, replicate 2): 0.61 a.u. | Slope of linear regression ([2]; + FtsN, 0.20 µM, replicate 3): 0.72 a.u. | Slope of linear regression ([2]; + FtsN, 0.40 µM, mean): 0.35 a.u. | Slope of linear regression ([2]; + FtsN, 0.40 µM, replicate 1): 0.43 a.u. | Slope of linear regression ([2]; + FtsN, 0.40 µM, replicate 2): 0.47 a.u. | Slope of linear regression ([2]; + FtsN, 0.40 µM, replicate 3): 0.13 a.u. | Slope of linear regression ([2]; without FtsN, 0.10 µM, mean): 0.70 a.u. | Slope of linear regression ([2]; without FtsN, 0.10 µM, replicate 1): 0.52 a.u. | Slope of linear regression ([2]; without FtsN, 0.10 µM, replicate 2): 0.85 a.u. | Slope of linear regression ([2]; without FtsN, 0.10 µM, replicate 3): 0.71 a.u. | Slope of linear regression ([2]; without FtsN, 0.20 µM, mean): 0.59 a.u. | Slope of linear regression ([2]; without FtsN, 0.20 µM, replicate 1): 0.55 a.u. | Slope of linear regression ([2]; without FtsN, 0.20 µM, replicate 2): 0.56 a.u. | Slope of linear regression ([2]; without FtsN, 0.20 µM, replicate 3): 0.66 a.u. | Slope of linear regression ([2]; without FtsN, 0.40 µM, mean): 0.16 a.u. | Slope of linear regression ([2]; without FtsN, 0.40 µM, replicate 1): 0.24 a.u. | Slope of linear regression ([2]; without FtsN, 0.40 µM, replicate 2): 0.066 a.u. | Slope of linear regression ([2]; without FtsN, 0.40 µM, replicate 3): 0.18 a.u. | Pearson correlation coefficient (PCC) FtsA/FtsZ ([3]; 0.1 µM FtsA, steady state about 15 min): 0.78 ± 0.04 | PCC FtsZ/FtsA ([3]; 0.1µM FtsA, Exp. 2): 0.79 | PCC FtsZ/FtsA ([3]; 0.1µM FtsA, replicate 1 (row printed 'goo')): 0.77 | Pearson correlation coefficient (PCC) FtsA/FtsZ ([3]; 0.2 µM FtsA, steady state about 15 min): 0.69 ± 0.06 | PCC FtsZ/FtsA ([3]; 0.2µM FtsA, Exp. 2): 0.62 | PCC FtsZ/FtsA ([3]; 0.2µM FtsA, replicate 1 (row printed 'goo')): 0.61 | Pearson correlation coefficient (PCC) FtsA/FtsZ ([3]; 0.4 µM FtsA, WT vs R286W p-value 1.28 × 10^−5): 0.32 ± 0.12 | PCC FtsZ/FtsA ([3]; 0.4µM FtsA, Exp. 2): 0.40 | PCC FtsZ/FtsA ([3]; 0.4µM FtsA, replicate 1 (row printed 'goo')): 0.43 | Pearson correlation coefficient (PCC) FtsA/FtsZ ([3]; 0.8 µM FtsA): 0.27 ± 0.09 | PCC FtsZ/FtsA ([3]; 0.8µM FtsA, Exp. 2): 0.29 | PCC FtsZ/FtsA ([3]; 0.8µM FtsA, replicate 1 (row printed 'goo')): 0.38 | oligomeric state in solution [4]: monomeric in solution | Recruitment rate of FtsN to FtsZ filaments ([5]; Concentration 0.10 µM): 2.60 | Recruitment rate of FtsN to FtsZ filaments ([5]; Concentration 0.20 µM): 1.05 | Recruitment rate of FtsN to FtsZ filaments ([5]; Concentration 0.40 µM): 0.99 | Recruitment rate of FtsN to FtsZ filaments ([5]; Concentration 0.80 µM): 0.85 | FtsZ autocorrelation ([6]; 0.1 µM FtsA, Exp. 1): 103.16 s | FtsZ autocorrelation ([6]; 0.1µM FtsA, Exp. 2): 95.06 s | FtsZ autocorrelation T ([6]; 0.10 µM FtsA): 86.22 s | FtsZ autocorrelation ([6]; 0.2 µM FtsA, Exp. 1): 137.57 s | FtsZ autocorrelation ([6]; 0.2µM FtsA, Exp. 2): 43.74 s | FtsZ autocorrelation T ([6]; 0.20 µM FtsA): 87.69 s | FtsZ autocorrelation ([6]; 0.4 µM FtsA, Exp. 1): 70.56 s | FtsZ autocorrelation ([6]; 0.4µM FtsA, Exp. 2): 64.54 s | FtsZ autocorrelation T ([6]; 0.40 µM FtsA): 64.93 s | FtsZ autocorrelation ([6]; 0.8 µM FtsA, Exp. 1): 56.36 s | FtsZ autocorrelation ([6]; 0.8µM FtsA, Exp. 2): 98.59 s | Autocorrelation Decay Tau ([6]; replicate 1): 3.11 min | Autocorrelation Decay Tau ([6]; replicate 2): 2.08 min | Autocorrelation Decay Tau ([6]; replicate 3): 2.02 min | Normalized intensity ([7]; AMP PNP, 0.10 µM FtsA, replicate 1): 0.07 a.u. | Normalized intensity ([7]; AMP PNP, 0.10 µM FtsA, replicate 2): 0.13 a.u. | Normalized intensity ([7]; AMPPNP, 0.20 µM FtsA, summary value): 0.62 a.u. | Normalized intensity ([7]; AMPPNP, 0.40 µM FtsA, summary value): 0.75 a.u. | Normalized intensity ([7]; AMPPNP, 0.80 µM FtsA, summary value): 1.00 a.u. | Normalized intensity ([7]; ATP, 0.10 µM FtsA, replicate 1): 0.20 a.u. | Normalized intensity ([7]; ATP, 0.10 µM FtsA, replicate 2): 0.48 a.u. | Normalized intensity ([7]; ATP, 0.10 µM FtsA, summary value): 0.37 a.u. | Normalized intensity ([7]; ATP, 0.20 µM FtsA, summary value): 0.67 a.u. | Normalized intensity ([7]; ATP, 0.40 µM FtsA, summary value): 0.82 a.u. | Normalized intensity ([7]; ATP, 0.80 µM FtsA, summary value): 0.95 a.u. | Normalized intensity ([7]; ATPgS, 0.20 µM FtsA, summary value): 0.20 a.u. | Normalized intensity ([7]; ATPgS, 0.40 µM FtsA, summary value): 0.21 a.u. | Normalized intensity ([7]; ATPgS, 0.80 µM FtsA, summary value): 0.65 a.u. | effect on FtsZ treadmilling velocity [8]: could not observe a significant effect
